Data published in PMC5487681, “Identification of Antifungal H^+-ATPase Inhibitors with Effect on Plasma Membrane Potential” (Antimicrobial Agents and Chemotherapy, 2017).
In brackets after ≈: the same amount, converted by molar mass. Where two headings read alike, the source gives them in different places.

Columns and labels:
Ca^2+-ATPase (SERCA1a) = Ca^2+-ATPase (SERCA1a) (Oryctolagus cuniculus, UniProt P04191); assay: ATP hydrolysis assay, SERCA; type: biochemical, rabbit
Description: Rabbit sarcoplasmic reticulum membranes containing sarcoplasmic endoplasmic reticulum Ca^2+-ATPase (SERCA) were kindly provided by Claus E. Olesen and Jesper V. Møller, Aarhus University, and prepared as described in reference. Porcine kidney Na^+,K^+-ATPase was kindly provided by Natalya Fedosova, Aarhus University, and prepared as described in reference.
The protein activity levels were determined by measuring the amount of free phosphate produced from the ATP hydrolysis reaction. The assay was performed as described in reference. Each well contained ATPase enzyme, 2 μl of inhibitor (usually in the range of 333 to 0.01 μM) dissolved in dimethyl sulfoxide (DMSO) (Duchefa Biochemie, Haarlem, The Netherlands), and an assay buffer dependent on the enzyme for a final volume of 60 μl. Possible compound precipitation in the assay buffer was monitored using a Nephelostar plate reader measuring turbidity, and the information was taken into account in the IC50 determination. Pma1 assay buffer consisted of 20 mM 3-(N-morpholino)propanesulfonic acid (MOPS)–NaOH, pH 6.5 or 7.0, 8 mM MgSO4, 50 mM KNO3 (a vacuolar ATPase inhibitor), 25 mM sodium azide (a mitochondrial ATPase inhibitor), and 250 μM sodium molybdate (an acid phosphatase inhibitor). SERCA buffer consisted of 9 mM MOPS-NaOH, pH 7, 2.7 mM MgCl2, 90 μM CaCl2, and 72 mM KCl. Na^+,K^+-ATPase buffer consisted of 30 mM MOPS-NaOH, pH 7, 40 mM NaCl, 4 mM MgCl2, and 20 mM KCl. The concentration of protein was adjusted to obtain a signal of the optical density at 860 nm (OD860) of between 0.5 and 1.0 in the untreated samples (for all Pma1 batches, ∼1 to 2 μg/well; for SERCA and Na^+,K^+-ATPase, ∼0.1 to 0.2 μg/well).

[1] = system: Aspergillus fumigatus ATCC 13073; assay: microbe, parasite or virus in culture; conditions: for MIC: Aspergillus fumigatus
Candida albicans SC5314 = assay: microbe, parasite or virus in culture; conditions: for MIC: Candida albicans
Candida spp. = assay: Fungal growth inhibition, Candida spp. (text summary of Table 1); type: cell-based; conditions: 38 μM highest concentration tested for compounds 4 and 8, read-out: MIC for several of the Candida spp. tested
Description: (§1) The following fungal isolates were used: Saccharomyces cerevisiae ATCC 9763, Candida albicans SC5314, Candida parapsilosis ATCC 22019, Candida tropicalis Ct016, Candida glabrata ATCC 90030, Aspergillus fumigatus ATCC 13073, and Aspergillus flavus ATCC MYA-1005. Frozen stocks of yeast isolates in glycerol (final concentration, 20%) were prepared by growing the cells to log phase in YPD medium at 30°C and 150 rpm. Frozen stocks of mold spores were prepared by harvesting spores from 7-day-old potato glucose agar plates in phosphate-buffered saline, 0.1% Tween 80 and aliquoting these spores in the presence of glycerol (final concentration, 20%). The cells were stored at −80°C. The cells or spores were thawed and diluted to a final concentration of 0.5 × 10^5 to 2.5 × 10^5 CFU/ml in sterile Milli-Q H2O. […] The plate was incubated for 20 to 24 h at 34°C (72 h for molds), and the OD490 was measured on a Victor X5 (PerkinElmer) plate reader. Mold growth assay plates were also visually inspected. The MIC was defined as the lowest concentration inhibiting the visual growth of the microorganism. Standard errors were typically below 5%.

[2] = system: Saccharomyces cerevisiae ATCC 9763; assay: microbe, parasite or virus in culture; type: cell-based; conditions: Table 3, read-out: MIC for growth inhibition, S. cerevisiae
Description: as §1

[3] = system: Aspergillus flavus ATCC MYA-1005; assay: microbe, parasite or virus in culture; type: cell-based; conditions: Table 3, read-out: MIC for growth inhibition, A. flavus
Description: as §1

S. cerevisiae = assay: Medium acidification assay, S. cerevisiae; type: cell-based, Saccharomyces cerevisiae; conditions: 50% inhibition of medium acidification, 12 min, n = 2 to 3
Description: (§2) Frozen stocks of C. albicans and S. cerevisiae were transferred to YPD agar plates and incubated overnight at 34°C. On the next day, the cells were suspended and washed twice in 50 mM KCl, pH 6.7, after pelleting of the cells by centrifugation at 3,000 × g for 5 min. The cells were then starved overnight at 4°C in the KCl solution. […] The pH drop was then monitored by determination of the fluorescent signal with excitation at 485 nm and emission at 538 nm on a Fluoroskan Ascent plate reader (Thermo Fisher Scientific) for 12 min. The rate of medium acidification was calculated on the basis of the slope of the drop in fluorescence.

C. albicans = assay: Medium acidification assay, C. albicans; type: cell-based, Candida albicans
Description: as §2

[4] = ATCC13073, 72 h, pH 7, read-out: MIC A. fumigatus
[5] = SC5314, pH 7, read-out: MIC C. albicans
[6] = Saccharomyces cerevisiae, ATCC9763
[7] = ATCC13073, read-out: MIC for growth inhibition, A. fumigatus
[8] = SC5314, read-out: Growth inhibition MIC, C. albicans in RPMI
[9] = SC5314, read-out: MIC for growth inhibition, C. albicans
[10] = Saccharomyces cerevisiae, 0.2 h
[11] = Candida albicans, 0.2 h, 50% inhibition of medium acidification, 12 min, n = 2 to 3, read-out: IC50 for acidification, C. albicans
[12] = Table 2, pH 7, n = 2, rabbit SERCA1a, read-out: IC50 for ATP hydrolysis, SERCA

Chain of Ca^2+-ATPase (SERCA1a) (P04191 1-994 isoform P04191-2): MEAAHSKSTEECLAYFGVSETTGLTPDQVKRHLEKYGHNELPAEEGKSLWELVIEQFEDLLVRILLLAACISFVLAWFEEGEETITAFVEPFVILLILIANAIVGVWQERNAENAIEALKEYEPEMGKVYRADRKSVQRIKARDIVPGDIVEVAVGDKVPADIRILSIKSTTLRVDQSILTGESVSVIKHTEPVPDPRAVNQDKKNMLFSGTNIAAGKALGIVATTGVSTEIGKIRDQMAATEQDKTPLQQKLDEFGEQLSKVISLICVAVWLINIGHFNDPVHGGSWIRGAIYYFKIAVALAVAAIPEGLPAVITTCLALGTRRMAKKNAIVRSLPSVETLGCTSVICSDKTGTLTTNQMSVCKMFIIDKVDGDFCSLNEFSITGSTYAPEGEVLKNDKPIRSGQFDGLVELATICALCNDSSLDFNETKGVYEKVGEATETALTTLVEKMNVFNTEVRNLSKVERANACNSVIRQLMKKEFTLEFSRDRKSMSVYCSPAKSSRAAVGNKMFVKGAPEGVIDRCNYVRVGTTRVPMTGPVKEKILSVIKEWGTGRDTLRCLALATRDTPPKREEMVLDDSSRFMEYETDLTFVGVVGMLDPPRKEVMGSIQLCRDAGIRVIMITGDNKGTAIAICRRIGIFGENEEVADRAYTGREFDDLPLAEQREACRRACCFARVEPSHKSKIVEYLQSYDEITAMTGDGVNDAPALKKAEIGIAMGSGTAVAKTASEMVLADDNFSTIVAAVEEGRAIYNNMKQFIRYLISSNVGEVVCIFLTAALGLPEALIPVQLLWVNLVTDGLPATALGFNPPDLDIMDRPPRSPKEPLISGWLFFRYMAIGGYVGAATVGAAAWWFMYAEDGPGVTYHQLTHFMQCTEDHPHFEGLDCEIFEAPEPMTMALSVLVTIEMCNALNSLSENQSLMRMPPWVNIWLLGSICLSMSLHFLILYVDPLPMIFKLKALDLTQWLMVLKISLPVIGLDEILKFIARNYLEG

Compound | IC50 (Ca^2+-ATPase (SERCA1a)) [µM] | MIC [1, 4] [µM] | MIC (Candida albicans SC5314; [5]) [µM] | MIC (Candida spp.) [µM] | MIC [2, 6] [µM] | MIC ([3]; Aspergillus flavus) [µM] | MIC [1, 7] [µM] | MIC (Candida albicans SC5314; [8]) [µM] | MIC (Candida albicans SC5314; [9]) [µM] | IC50 (S. cerevisiae; [10]) [µM] | IC50 (C. albicans; [11]) [µM] | IC50 (Ca^2+-ATPase (SERCA1a); [12]) [µM] | IC50 (C. albicans; Candida albicans, read-out: IC50 for C. albicans, extracellular acidification) [µM] | MIC [2] [µM] | MIC [3] [µM] | MIC for growth inhibition, A. fumigatus ([1]; Table 3) [µM] | MIC for growth inhibition, C. albicans (Candida albicans SC5314; Table 3) [µM] | IC50 (S. cerevisiae) [µM] | IC50 (C. albicans; 50% inhibition of medium acidification, 12 min, n = 2 to 3, read-out: IC50 for acidification, C. albicans) [µM]
CCCCOc1ccc(C2C(C#N)=C(N)Oc3cc(O)ccc32)cc1 (stereo not drawn) [Compound 11] | 15.7 ± 2 | > 150 | > 150 | > 150 |  |  |  |  |  |  |  |  |  |  |  |  |  |  | 
COc1ccc(Cn2c(SCc3cc(C)ccc3C)nc3cc(OC)c(OC)cc3c2=N)cc1 [Compound 12] |  | > 150 | 12 (≈ 5.71 µg/mL) | > 150 |  |  |  |  |  |  |  |  |  |  |  |  |  |  | 
CCCCc1nc2sc3c(NCCCN(C)C)ncnc3c2c2c1CCCC2 [Compound 14] | 42 ± 8 | 75 (≈ 29.8 µg/mL) | 36 (≈ 14.3 µg/mL) |  | 7.5 (≈ 2.98 µg/mL) | 75 (≈ 29.8 µg/mL) | 75 (≈ 29.8 µg/mL) | 36 (≈ 14.3 µg/mL) | 36 (≈ 14.3 µg/mL) | 11.2 ± 2.7 | 6.6 ± 2.5 |  |  |  |  |  |  |  | 
CCCCc1nc2sc3c(NCCCN(C)C)nc(SC)nc3c2c2c1CCC2 [Compound 15] |  |  |  |  | 1.5 (≈ 0.644 µg/mL) | 24 (≈ 10.3 µg/mL) | 15 (≈ 6.44 µg/mL) | 4.8 (≈ 2.06 µg/mL) | 4.8 (≈ 2.06 µg/mL) | 1.7 ± 0.1 | 1.6 | 4.5 |  |  |  |  |  |  | 
CN(C)CCCNc1ncnc2c1sc1nc(N3CCCCC3)c3c(c12)CCCC3 [Compound 16] | 11.1 |  |  |  | 3.2 (≈ 1.36 µg/mL) | 47 (≈ 20 µg/mL) | 15 (≈ 6.37 µg/mL) | 15 (≈ 6.37 µg/mL) | 15 (≈ 6.37 µg/mL) | 7.6 ± 3.4 | 3.4 ± 1.6 |  |  |  |  |  |  |  | 
CCc1nc2sc3c(NCCCN(C)C)ncnc3c2c2c1CCCC2 [Compound 17] | > 333 |  |  |  | 47 (≈ 17.4 µg/mL) | > 150 | > 150 | 150 (≈ 55.4 µg/mL) | 150 (≈ 55.4 µg/mL) | 39.6 ± 10.3 | 19.1 ± 1.7 |  |  |  |  |  |  |  | 
CN(C)CCCNc1ncnc2c1sc1nc(-c3ccccc3)c3c(c12)CCC3 [Compound 18] | 69.5 ± 6.9 |  |  |  | 24 (≈ 9.69 µg/mL) | > 75 | 75 (≈ 30.3 µg/mL) | 75 (≈ 30.3 µg/mL) | 75 (≈ 30.3 µg/mL) | 12.5 ± 1.1 | 8.8 ± 0.4 |  |  |  |  |  |  |  | 
CCN(CC)CCCNc1nc(SC)nc2c1sc1nc(-c3ccccc3)c3c(c12)CCC3 [Compound 19] |  |  |  |  | 3.7 (≈ 1.77 µg/mL) | 12 (≈ 5.73 µg/mL) | 12 (≈ 5.73 µg/mL) | 7 (≈ 3.34 µg/mL) | 6 (≈ 2.87 µg/mL) | 2.3 ± 0.1 | 2.3 ± 0.5 | 4.4 ± 0.3 |  |  |  |  |  |  | 
O=c1c2ccccc2[se]n1-c1ccccc1 [Ebselen, reference compound] |  |  |  |  | 7.5 (≈ 2.06 µg/mL) | 24 (≈ 6.58 µg/mL) | 24 (≈ 6.58 µg/mL) |  | 7.5 (≈ 2.06 µg/mL) | 7.6 | 9.4 ± 2.1 | 0.12 | 11 |  |  |  |  |  | 
[O]=[V]([O-])([O-])[O-] [Vanadate, reference compound] |  |  |  |  |  |  |  |  |  |  |  | 10.4 ± 2.4 |  | >750 | >750 | >750 | >750 | > 40 | > 40
